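Where inhibition never reached the appropriate level, the endpoint shown equals the highest concentration tested. Otherwise, values were interpolated linearly from a five-concentration, 48-hour dose response in 96-well plates. GI50: concentration for 50% inhibition of growth.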 Activity calls are given as the source filed them. Cut-off read from the data, not from the text of the source: active = GI50 up to about 1.1 µM and inactive = higher.
Key:
Experiment in all cases: NCI anticancer screen, dose series, 48 h
TK-10 = test system: TK-10
SK-MEL-28 = test system: SK-MEL-28
MOLT-4 = test system: MOLT-4
SW-620 = test system: SW-620
HOP-62 = test system: HOP-62
CAKI-1 = test system: CAKI-1
HCT-116 = test system: HCT-116
U-251 = test system: U-251
Malme-3M = test system: Malme-3M
SK-MEL-2 = test system: SK-MEL-2
RXF 393 = test system: RXF 393
KM12 = test system: KM12
SR = test system: SR
NCI-H23 = test system: NCI-H23
MDA-MB-435 = test system: MDA-MB-435
IGROV-1 = test system: IGROV-1
OVCAR-5 = test system: OVCAR-5
MDA-N = test system: MDA-N
OVCAR-8 = test system: OVCAR-8
SK-OV-3 = test system: SK-OV-3

Structure (SMILES) | GI50 (TK-10) | GI50 (SK-MEL-28) | GI50 (MOLT-4) | GI50 (SW-620) | GI50 (HOP-62) | GI50 (CAKI-1) | GI50 (HCT-116) | GI50 (U-251) | GI50 (Malme-3M) | GI50 (SK-MEL-2) | GI50 (RXF 393) | GI50 (KM12) | GI50 (SR) | GI50 (NCI-H23) | GI50 (MDA-MB-435) | GI50 (IGROV-1) | GI50 (OVCAR-5) | GI50 (MDA-N) | GI50 (OVCAR-8) | GI50 (SK-OV-3)
COC[C@@H](/N=C/c1ccc(OC)cc1)C(C)C | > 100 µM (inactive) | > 100 µM (inactive) | > 100 µM (inactive) | > 100 µM (inactive) | > 100 µM (inactive) | > 100 µM (inactive) | > 100 µM (inactive) | > 100 µM (inactive) | > 100 µM (inactive) | > 100 µM (inactive) | > 100 µM (inactive) | > 100 µM (inactive) | > 100 µM (inactive) | > 100 µM (inactive) | > 100 µM (inactive) | > 100 µM (inactive) | > 100 µM (inactive) | > 100 µM (inactive) | > 100 µM (inactive) | > 100 µM (inactive)
O=C1CCC(C(=O)O)C2=C1CCCC2 (configuration not stated) | > 100 µM (inactive) | > 100 µM (inactive) | > 100 µM (inactive) | > 100 µM (inactive) | > 16.4 µM (inactive) | > 100 µM (inactive) | > 100 µM (inactive) | > 15.7 µM (inactive) | > 100 µM (inactive) | > 100 µM (inactive) | > 100 µM (inactive) | > 35.6 µM (inactive) | > 100 µM (inactive) | > 15.5 µM (inactive) | > 100 µM (inactive) | > 100 µM (inactive) | > 21.5 µM (inactive) | > 100 µM (inactive) | > 100 µM (inactive) | > 43.4 µM (inactive)
COc1ccc2c(C)cc(N/N=C/c3ccc(C)s3)nc2c1 | 19 µM (inactive) | 24.7 µM (inactive) | 5.94 µM (inactive) | 13.1 µM (inactive) | 18.7 µM (inactive) | 13.5 µM (inactive) | 5.92 µM (inactive) | 13.7 µM (inactive) | 17.7 µM (inactive) | 19.1 µM (inactive) | 14.3 µM (inactive) | 5.18 µM (inactive) | 5.18 µM (inactive) | 12.3 µM (inactive) | 16.3 µM (inactive) | 7.82 µM (inactive) | 12.6 µM (inactive) | 10.4 µM (inactive) | 15.2 µM (inactive) | 17 µM (inactive)
C=C(Br)CNC(=O)Nc1ccc(Cl)c(Cl)c1 | 25.8 µM (inactive) | 28.1 µM (inactive) | 26.2 µM (inactive) | 35.4 µM (inactive) | 22.5 µM (inactive) | 20.4 µM (inactive) | 17.1 µM (inactive) | 22.6 µM (inactive) | 20.1 µM (inactive) | 12.6 µM (inactive) | 18.5 µM (inactive) | 17.3 µM (inactive) | 30.9 µM (inactive) | 15.6 µM (inactive) | 20.3 µM (inactive) | 13.6 µM (inactive) | 33.1 µM (inactive) | 27.3 µM (inactive) | – | 29 µM (inactive)
Cc1cnc2[nH]c(-c3ccccc3)cc(=O)c2c1 | 0.151 µM (active) | 0.0363 µM (active) | 0.0252 µM (active) | < 0.01 µM (active) | 1.21 µM (inactive) | < 0.0186 µM (active) | < 0.0155 µM (active) | 0.0188 µM (active) | 0.017 µM (active) | 0.0391 µM (active) | 0.0154 µM (active) | 0.0138 µM (active) | < 0.01 µM (active) | 0.0741 µM (active) | < 0.01 µM (active) | 0.0817 µM (active) | 3.07 µM (inactive) | < 0.01 µM (active) | 0.04 µM (active) | 0.0284 µM (active)
CCOC(=O)NC(C(=O)OCC)(N1CCN(c2cc3c(cc2F)c(=O)c(C(=O)O)cn3CC)CC1)C(F)(F)F (configuration not stated) | > 100 µM (inactive) | 0.197 µM (active) | > 100 µM (inactive) | > 100 µM (inactive) | > 100 µM (inactive) | > 100 µM (inactive) | > 100 µM (inactive) | 58.1 µM (inactive) | > 100 µM (inactive) | > 100 µM (inactive) | > 100 µM (inactive) | > 100 µM (inactive) | > 100 µM (inactive) | > 100 µM (inactive) | 26.1 µM (inactive) | > 100 µM (inactive) | > 100 µM (inactive) | > 100 µM (inactive) | 6.1 µM (inactive) | > 100 µM (inactive)
C=CCN1C[C@H](C)N([C@@H](c2ccc(C(=O)N3CCCCC3)cc2)c2cccc(OC)c2)C[C@H]1C | 40 µM (inactive) | – | 64.1 µM (inactive) | – | > 100 µM (inactive) | 66.4 µM (inactive) | 28.6 µM (inactive) | 32.1 µM (inactive) | 18.5 µM (inactive) | 22.2 µM (inactive) | 48 µM (inactive) | 36.9 µM (inactive) | 16.1 µM (inactive) | 42.4 µM (inactive) | 35 µM (inactive) | 63.2 µM (inactive) | 58.1 µM (inactive) | 34.5 µM (inactive) | 43.7 µM (inactive) | 89.5 µM (inactive)
C=CCOC(=O)N1[C@H]2C#C/C=C\C#C[C@]3(O)C(=O)C[C@H](C)[C@]24O[C@]43C2=CC(=O)C=CC21OC (some centres not stated) | 18.4 µM (inactive) | 95.9 µM (inactive) | 3.72 µM (inactive) | 32.8 µM (inactive) | 40.2 µM (inactive) | 33.1 µM (inactive) | 19.8 µM (inactive) | 37.7 µM (inactive) | 43.7 µM (inactive) | 18 µM (inactive) | 20.9 µM (inactive) | 32.9 µM (inactive) | 4.62 µM (inactive) | 27.2 µM (inactive) | 16.6 µM (inactive) | 16.7 µM (inactive) | 35.2 µM (inactive) | 28.6 µM (inactive) | 22.5 µM (inactive) | 60.1 µM (inactive)
COc1cc(/C=C/c2sc3ccccc3[n+]2C)ccc1N(C)C | 13.2 µM (inactive) | 8.2 µM (inactive) | 4.55 µM (inactive) | 5.07 µM (inactive) | 17.9 µM (inactive) | 35.6 µM (inactive) | 3.3 µM (inactive) | 6.9 µM (inactive) | 2.49 µM (inactive) | 2.32 µM (inactive) | 16.6 µM (inactive) | 3.62 µM (inactive) | 1.94 µM (inactive) | 11.5 µM (inactive) | 3.32 µM (inactive) | 7.41 µM (inactive) | 20.3 µM (inactive) | 2.48 µM (inactive) | 2.93 µM (inactive) | 23.6 µM (inactive)
CC(=O)OCC1OC(NC(=S)Nn2c(-c3ccccc3)nc3ccccc3c2=O)C(OC(C)=O)C(OC(C)=O)C1OC(C)=O (configuration not stated) | – | 90.2 µM (inactive) | 46.9 µM (inactive) | > 100 µM (inactive) | 97.7 µM (inactive) | > 100 µM (inactive) | > 100 µM (inactive) | > 100 µM (inactive) | 52.8 µM (inactive) | 25.9 µM (inactive) | > 100 µM (inactive) | > 100 µM (inactive) | 35.6 µM (inactive) | > 100 µM (inactive) | > 100 µM (inactive) | 33.8 µM (inactive) | > 100 µM (inactive) | > 100 µM (inactive) | > 100 µM (inactive) | > 100 µM (inactive)
C#CC(O)/C=C/C(O)CCCC(O)CC#CC(O)C#CCCCCC(O)/C=C/CCCC(O)/C=C/CCCCCCCCCCCCCC(O)C(O)C#CC(=O)O (configuration not stated) | > 25 µM (inactive) | > 25 µM (inactive) | > 25 µM (inactive) | – | > 25 µM (inactive) | > 25 µM (inactive) | > 25 µM (inactive) | > 25 µM (inactive) | 23.2 µM (inactive) | > 25 µM (inactive) | > 25 µM (inactive) | > 25 µM (inactive) | > 25 µM (inactive) | > 25 µM (inactive) | > 25 µM (inactive) | > 25 µM (inactive) | > 25 µM (inactive) | > 25 µM (inactive) | > 25 µM (inactive) | > 25 µM (inactive)
Cc1cccc2sc(NC(=O)c3cc([N+](=O)[O-])ccc3Cl)nc12 | 2.59 µM (inactive) | 5.22 µM (inactive) | – | 2.42 µM (inactive) | 11.8 µM (inactive) | 3.85 µM (inactive) | 2.55 µM (inactive) | 2.85 µM (inactive) | 5.38 µM (inactive) | 4.46 µM (inactive) | 2.01 µM (inactive) | 2.42 µM (inactive) | > 100 µM (inactive) | 2.79 µM (inactive) | 2.67 µM (inactive) | 2.68 µM (inactive) | 5.87 µM (inactive) | 1.56 µM (inactive) | 2.36 µM (inactive) | 13.1 µM (inactive)
C/C=C(\C)CC/C=C/CO[Si](C)(C)C(C)(C)C | > 100 µM (inactive) | > 100 µM (inactive) | 39 µM (inactive) | > 100 µM (inactive) | > 100 µM (inactive) | > 100 µM (inactive) | 46.8 µM (inactive) | – | 51.1 µM (inactive) | 35.4 µM (inactive) | > 100 µM (inactive) | > 100 µM (inactive) | 28.9 µM (inactive) | > 100 µM (inactive) | > 100 µM (inactive) | > 100 µM (inactive) | > 100 µM (inactive) | > 100 µM (inactive) | > 100 µM (inactive) | > 100 µM (inactive)
Cc1ccc(-c2cc(N)n(-c3nc4c([nH]3)c(=O)n(C)c(=O)n4C)n2)cc1 | 9.84 µM (inactive) | 6.14 µM (inactive) | 2.06 µM (inactive) | – | 3.28 µM (inactive) | 0.778 µM (active) | 2.69 µM (inactive) | 5.36 µM (inactive) | 3.86 µM (inactive) | 6.64 µM (inactive) | 17.6 µM (inactive) | 4.88 µM (inactive) | 2.43 µM (inactive) | 8.95 µM (inactive) | 7.73 µM (inactive) | 2.2 µM (inactive) | 8.05 µM (inactive) | 5.98 µM (inactive) | 3.37 µM (inactive) | 3.3 µM (inactive)
